According to the NIST ThermoML archive (doi:10.1021/je060411g):

Assay: molar heat capacity at constant pressure
Conditions: 101.33 kPa

CCC(C)(C)O [2-methylbutan-2-ol]
Conditions | molar heat capacity at constant pressure [J/K/mol]
84.18 K, Crystal 3 | 59.96
84.41 K, Crystal 3 | 60.87
85.57 K, Crystal 3 | 65.73
86.62 K, Crystal 3 | 61.65
86.85 K, Crystal 3 | 61.55
87.94 K, Crystal 3 | 66.53
89.04 K, Crystal 3 | 62.98
89.26 K, Crystal 3 | 62.98
90.33 K, Crystal 3 | 68.13
91.86 K, Crystal 3 | 64.6
92.09 K, Crystal 3 | 64.56
93.17 K, Crystal 3 | 69.93
94.67 K, Crystal 3 | 66.27
94.91 K, Crystal 3 | 66.32
95.99 K, Crystal 3 | 71.8
97.49 K, Crystal 3 | 67.95
97.72 K, Crystal 3 | 68.07
98.82 K, Crystal 3 | 73.51
100.31 K, Crystal 3 | 70.24
100.54 K, Crystal 3 | 70.6
101.65 K, Crystal 3 | 75.44
103.12 K, Crystal 3 | 72.36
103.36 K, Crystal 3 | 72.54
104.48 K, Crystal 3 | 76.92
105.95 K, Crystal 3 | 73.89
106.18 K, Crystal 3 | 74.04
107.28 K, Crystal 3 | 78.03
108.74 K, Crystal 3 | 75.59
108.97 K, Crystal 3 | 75.81
110.03 K, Crystal 3 | 79.77
111.48 K, Crystal 3 | 77.47
111.7 K, Crystal 3 | 77.66
112.73 K, Crystal 3 | 81.52
114.17 K, Crystal 3 | 79.5
114.38 K, Crystal 3 | 79.61
115.38 K, Crystal 3 | 83.05
116.8 K, Crystal 3 | 81.46
117.02 K, Crystal 3 | 81.54
117.99 K, Crystal 3 | 84.42
119.4 K, Crystal 3 | 83.36
119.61 K, Crystal 3 | 83.37
120.55 K, Crystal 3 | 85.98
121.95 K, Crystal 3 | 85.58
122.15 K, Crystal 3 | 85.21
123.09 K, Crystal 3 | 87.29
124.47 K, Crystal 3 | 87.36
124.66 K, Crystal 3 | 87.39
125.59 K, Crystal 3 | 88.61
126.95 K, Crystal 3 | 89.35
127.13 K, Crystal 3 | 89.35
128.06 K, Crystal 3 | 90.2
129.39 K, Crystal 3 | 91.6
129.57 K, Crystal 3 | 91.64
130.5 K, Crystal 3 | 91.83
131.8 K, Crystal 3 | 96.05
131.98 K, Crystal 3 | 95.7
132.91 K, Crystal 3 | 94.22
134.19 K, Crystal 3 | 97.24
134.35 K, Crystal 3 | 97.17
135.29 K, Crystal 3 | 94.95
136.54 K, Crystal 3 | 98.99
136.7 K, Crystal 3 | 98.94
137.65 K, Crystal 3 | 96.49
138.86 K, Crystal 3 | 102.38
139.01 K, Crystal 3 | 102.19
139.98 K, Crystal 3 | 98.2
141.14 K, Crystal 3 | 106.32
141.29 K, Crystal 3 | 106.03
142.29 K, Crystal 3 | 99.86
143.38 K, Crystal 3 | 112.82
143.53 K, Crystal 3 | 110.46
144.58 K, Crystal 3 | 101.73
148.39 K, Crystal 2 | 89.39
148.47 K, Crystal 2 | 107.13
149.08 K, Crystal 2 | 105.46
150.5 K, Crystal 2 | 120.91
150.6 K, Crystal 2 | 120.49
151.3 K, Crystal 2 | 107.39
152.65 K, Crystal 2 | 120.48
152.74 K, Crystal 2 | 120.32
153.5 K, Crystal 2 | 109.42
154.78 K, Crystal 2 | 120.35
154.87 K, Crystal 2 | 120.25
155.66 K, Crystal 2 | 111.51
156.9 K, Crystal 2 | 120.17
156.98 K, Crystal 2 | 120.02
157.81 K, Crystal 2 | 113.29
159.02 K, Crystal 2 | 121.07
159.09 K, Crystal 2 | 120.89
159.95 K, Crystal 2 | 115.97
161.12 K, Crystal 2 | 121.73
161.19 K, Crystal 2 | 121.42
162.06 K, Crystal 2 | 118.39
163.23 K, Crystal 2 | 122.32
163.28 K, Crystal 2 | 121.93
164.16 K, Crystal 2 | 120.83
165.34 K, Crystal 2 | 123.02
